{"source": "patent US7514245B2", "about": "“Method for producing chiral α-hydroxycarboxylic acids by enzymatic hydrolysis of chiral cyanohydrins” (DSM Fine Chemicals Austria NFG GmbH & Co. KG, priority 2003, dated 2009)", "target": "T1, Rhodococcus erythropolis NCIMB 11540 amidase (Rhodococcus erythropolis, UniProt P22984)", "T1 construct": "made in house; host or cells: E. coli B BL21 (plasmid pMS470-33/3/1/11), crude lysate", "T1 sequence (P22984 1-521)": "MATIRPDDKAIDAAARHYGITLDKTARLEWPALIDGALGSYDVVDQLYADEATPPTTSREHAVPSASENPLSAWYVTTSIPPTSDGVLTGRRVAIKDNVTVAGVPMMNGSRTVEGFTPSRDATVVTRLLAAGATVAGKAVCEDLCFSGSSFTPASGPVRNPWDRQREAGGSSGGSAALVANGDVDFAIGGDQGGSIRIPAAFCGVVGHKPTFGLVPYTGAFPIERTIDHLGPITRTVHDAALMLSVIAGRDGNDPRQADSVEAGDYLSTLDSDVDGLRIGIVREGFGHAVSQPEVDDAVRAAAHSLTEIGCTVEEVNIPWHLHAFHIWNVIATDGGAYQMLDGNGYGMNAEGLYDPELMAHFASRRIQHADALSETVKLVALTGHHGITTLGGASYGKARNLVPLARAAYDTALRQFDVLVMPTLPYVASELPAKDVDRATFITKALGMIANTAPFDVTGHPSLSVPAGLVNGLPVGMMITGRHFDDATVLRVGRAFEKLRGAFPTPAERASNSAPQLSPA", "assay": "Determination of amidase activity of crude lysates with acetamide", "type": "biochemical", "settings": "pMS470-33/3/1/11 lysate; acetamide (40 mM) in PBS buffer at 37° C.; indophenolblue method", "procedure": "The E. coli B BL21 cells transformed by pMS470-33/3/1/11 were isolated on LB-ampicillin plates and an ONC of 100 ml of LB-ampicillin medium was inoculated with an individual colony. On the next morning a main culture consisting of 250 ml of SOC-ampicillin medium was inoculated into a 1000 ml chicane flask to an OD600 of 0.01 to 0.03 (Beckmann Photometer). […] After reaching the induction density (OD600=1 Beckmann Photometer), the cultures were induced by adding IPTG to a concentration of 0.3 mM. After an induction time of 16 h, the cells were harvested (centrifugation 3000·g, 10 min) and washed with sodium phosphate buffer (0.1 M, pH=7). The pellet produced was resuspended to approximately 5 ml total volume in wash buffer and disintegrated using an ultrasound probe (BRANSON Sonifier 250, 60% power setting, constant sonication; 5 times 30 s each with 1 min pause for cooling) with constant cooling to completeness (visual control of completeness under the microscope). […]\n[…] The resultant blue coloration, after dilution of all samples and standards 1:10) with water, was quantified in the spectrophotometer (Perkin Elmer UV/VIS Spectrometer Lambda Bio) at 640 nm. By correlating the increase in blue coloration over time with the extinction values of the standards, the activity (μmol of released ammonium per minute) could be back-calculated."}
{"smiles": "CC(N)=O", "note": "[acetamide]", "values": [{"measurement": "activity of crude lysates", "value": "approximately 75 U/ml"}]}
